# Laboratory results taken from patent US8362249B2, “CXCR3 receptor antagonists” (Boehringer Ingelheim International GmbH, priority 2009, dated 2013).
# Tested on: LDL receptor knockout model
# Assay: not given
# Details: dosed prophylactically; cited from earlier work
row,Structure (SMILES),atherosclerotic lesion formation
1,CCOc1ccc(-n2c(C(C)N(Cc3cccnc3)C(=O)Cc3ccc(F)c(C(F)(F)F)c3)nc3ncccc3c2=O)cc1 (stereo not shown) [NBI-74330],significantly attenuated atherosclerotic lesion formation

# Biological target: CXCR3 (Macaca fascicularis, UniProt A0A2K5UV19)
# Assay: functional cellular assay measuring calcium flux in CXCR3 transfected cells (block of CXCR3/IP-10 interaction)
# Type: cell-based
# Details: IP-10 induced intracellular calcium flux; Cyno-CHO cells stably expressing recombinant CXCR3 and G-alpha-16
# Method in brief: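 Cyno-CHO cells stably co-expressing recombinant CXCR3 and G-alpha-16, loaded with Ca-4 dye (HBSS, 10 mM HEPES pH 7.4, 2 mM probenecid) for 1 h at 37 °C. Compound (10 microM final) preincubated 15 min at room temperature, then IP-10 added at EC80. Intracellular calcium flux read by fluorescence (ex 480/em 540 nm).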
# CXCR3, sequence (A0A2K5UV19 entry or part of it): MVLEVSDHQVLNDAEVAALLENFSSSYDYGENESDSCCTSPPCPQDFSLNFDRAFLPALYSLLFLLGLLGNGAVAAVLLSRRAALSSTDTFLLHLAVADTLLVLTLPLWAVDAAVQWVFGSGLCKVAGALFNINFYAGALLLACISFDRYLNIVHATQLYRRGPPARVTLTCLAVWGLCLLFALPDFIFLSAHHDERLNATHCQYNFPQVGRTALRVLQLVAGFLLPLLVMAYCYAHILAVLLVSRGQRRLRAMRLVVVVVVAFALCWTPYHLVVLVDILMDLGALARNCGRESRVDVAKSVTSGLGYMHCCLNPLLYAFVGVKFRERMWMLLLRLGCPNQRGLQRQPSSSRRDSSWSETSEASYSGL
row,IC50 [nM],Structure (SMILES)
1,18.5,"Cc1cc(C)n(CC(=O)N2CCC(c3ccc(Cl)cc3NC(=O)c3ccccc3)CC2)n1 [N-(5-Chloro-2-{1-[2-(3,5-dimethyl-pyrazol-1-yl)-acetyl]-piperidin-4-yl}-phenyl)-benzamide]"
2,10.6,"Cc1cc(C)n(CC(=O)N2CCN(c3ncc(Cl)cc3NC(=O)c3cccc(C(F)(F)F)c3)CC2)n1 [N-(5-Chloro-2-{4-[2-(3,5-dimethyl-pyrazol-1-yl)-acetyl]-piperazin-1-yl}-pyridin-3-yl)-3-trifluoromethyl-benzamide]"
3,23,"Cc1cc(C)n(CC(=O)N2CCN(c3ncc(Cl)cc3NC(=O)c3ccc(S(C)(=O)=O)cc3)CC2)n1 [N-(5-Chloro-2-{4-[2-(3,5-dimethyl-pyrazol-1-yl)-acetyl]-piperazin-1-yl}-pyridin-3-yl)-4-methanesulfonyl-benzamide]"
4,17,"Cc1cc(C)n(CC(=O)N2CCN(c3ccccc3C(=O)Nc3nc4cc(Cl)ccc4s3)CC2)n1 [N-(5-Chloro-benzothiazol-2-yl)-2-{4-[2-(3,5-dimethyl-pyrazol-1-yl)-acetyl]-piperazin-1-yl}-benzamide]"
5,7.6,"Cc1cc(C)n(CC(=O)N2CCN(c3ccccc3C(=O)Nc3cncc(Cl)c3)CC2)n1 [N-(5-Chloro-pyridin-3-yl)-2-{4-[2-(3,5-dimethyl-pyrazol-1-yl)-acetyl]-piperazin-1-yl}-benzamide]"
6,1.3,"O=C(Nc1cncc(F)c1)c1ccccc1N1CCN(C(=O)Cn2ccc3ccncc32)CC1 [N-(5-Fluoro-pyridin-3-yl)-2-[4-(2-pyrrolo[2,3-c]pyridin-1-yl-acetyl)-piperazin-1-yl]-benzamide]"
7,2.9,"CN1CCc2nc(NC(=O)c3ccccc3N3CCN(C(=O)CN4Cc5ccccc5C4=O)CC3)sc2C1 [N-(5-Methyl-4,5,6,7-tetrahydro-thiazolo[5,4-c]pyridin-2-yl)-2-{4-[2-(1-oxo-1,3-dihydro-isoindol-2-yl)-acetyl]-piperazin-1-yl}-benzamide]"
8,4.8,"Cc1cc(C)n(CC(=O)N2CCN(c3ccccc3C(=O)Nc3cc(C(C)(C)C)n[nH]3)CC2)n1 [N-(5-tert-Butyl-2H-pyrazol-3-yl)-2-{4-[2-(3,5-dimethyl-pyrazol-1-yl)-acetyl]-piperazin-1-yl}-benzamide]"
9,11,"Cc1cc(C)n(CC(=O)N2CCN(c3ccccc3C(=O)Nc3nc(C)c(C(C)(C)C)s3)CC2)n1 [N-(5-tert-Butyl-4-methyl-thiazol-2-yl)-2-{4-[2-(3,5-dimethyl-pyrazol-1-yl)-acetyl]-piperazin-1-yl}-benzamide]"
10,9.7,"Cc1cc(C)n(CC(=O)N2CCN(c3ccccc3C(=O)Nc3nnc(C(C)(C)C)s3)CC2)n1 [N-(5-tert-Butyl-[1,3,4]thiadiazol-2-yl)-2-{4-[2-(3,5-dimethyl-pyrazol-1-yl)-acetyl]-piperazin-1-yl}-benzamide]"
11,8.6,"Cc1cc(C)n(CC(=O)N2CCN(c3ccccc3C(=O)Nc3nc4c(s3)COCC4)CC2)n1 [N-(6,7-Dihydro-4H-pyrano[4,3-d]thiazol-2-yl)-2-{4-[2-(3,5-dimethyl-pyrazol-1-yl)-acetyl]-piperazin-1-yl}-benzamide]"
12,10.2,"CC(=O)Nc1ccc(NC(=O)c2ccccc2N2CCN(C(=O)Cn3nc(C)cc3C)CC2)cn1 [N-(6-Acetylamino-pyridin-3-yl)-2-{4-[2-(3,5-dimethyl-pyrazol-1-yl)-acetyl]-piperazin-1-yl}-benzamide]"
13,8.5,"Cc1cc(C)n(CC(=O)N2CCN(c3ccccc3C(=O)Nc3ccc(Br)nc3)CC2)n1 [N-(6-Bromo-pyridin-3-yl)-2-{4-[2-(3,5-dimethyl-pyrazol-1-yl)-acetyl]-piperazin-1-yl}-benzamide]"
14,7.2,"Cc1cc(C)n(CC(=O)N2CCN(c3ccccc3C(=O)Nc3ccc(Cl)nc3)CC2)n1 [N-(6-Chloro-pyridin-3-yl)-2-{4-[2-(3,5-dimethyl-pyrazol-1-yl)-acetyl]-piperazin-1-yl}-benzamide]"
15,6.3,"N#Cc1ccc(NC(=O)c2ccccc2N2CCN(C(=O)Cn3ccc4cccnc43)CC2)cn1 [N-(6-Cyano-pyridin-3-yl)-2-[4-(2-pyrrolo[2,3-b]pyridin-1-yl-acetyl)-piperazin-1-yl]-benzamide]"
16,4.2,"Cc1cc(C)n(CC(=O)N2CCN(c3ccccc3C(=O)Nc3ccc(C#N)nc3)CC2)n1 [N-(6-Cyano-pyridin-3-yl)-2-{4-[2-(3,5-dimethyl-pyrazol-1-yl)-acetyl]-piperazin-1-yl}-benzamide]"
17,5.7,"COc1ccc(NC(=O)c2ccccc2N2CCN(C(=O)Cn3ccc4cccnc43)CC2)cn1 [N-(6-Methoxy-pyridin-3-yl)-2-[4-(2-pyrrolo[2,3-b]pyridin-1-yl-acetyl)-piperazin-1-yl]-benzamide]"
18,6.8,"Cc1ccc(NC(=O)c2ccccc2N2CCN(C(=O)Cn3ccc4cccnc43)CC2)cn1 [N-(6-Methyl-pyridin-3-yl)-2-[4-(2-pyrrolo[2,3-b]pyridin-1-yl-acetyl)-piperazin-1-yl]-benzamide]"
19,5.9,"Cc1cc(C)n(CC(=O)N2CCN(c3ccccc3C(=O)Nc3nc4ccccc4s3)CC2)n1 [N-Benzothiazol-2-yl-2-{4-[2-(3,5-dimethyl-pyrazol-1-yl)-acetyl]-piperazin-1-yl}-benzamide]"
20,3.4,"O=C(Nc1ccccc1)c1ccccc1N1CCN(C(=O)Cn2ccc3cccnc32)CC1 [N-Phenyl-2-[4-(2-pyrrolo[2,3-b]pyridin-1-yl-acetyl)-piperazin-1-yl]-benzamide]"
21,4.6,"O=C(Nc1cccnc1)c1ccccc1N1CCN(C(=O)Cn2ccc3cccnc32)CC1 [N-Pyridin-3-yl-2-[4-(2-pyrrolo[2,3-b]pyridin-1-yl-acetyl)-piperazin-1-yl]-benzamide]"
22,4.9,"O=C(Nc1ccncc1)c1ccccc1N1CCN(C(=O)Cn2ccc3cccnc32)CC1 [N-Pyridin-4-yl-2-[4-(2-pyrrolo[2,3-b]pyridin-1-yl-acetyl)-piperazin-1-yl]-benzamide]"
23,14,O=C(Nc1ccncc1)c1ccccc1N1CCN(C(=O)Cc2cccc3cccnc23)CC1 [N-Pyridin-4-yl-2-[4-(2-quinolin-8-yl-acetyl)-piperazin-1-yl]-benzamide]
24,6.6,"O=C(Nc1ccncc1)c1ccccc1N1CCN(C(=O)CN2C(=O)c3ccccc3S2(=O)=O)CC1 [N-Pyridin-4-yl-2-{4-[2-(1,1,3-trioxo-1,3-dihydro-1l6-benzo[d]isothiazol-2-yl)-acetyl]-piperazin-1-yl}-benzamide]"
25,19.5,"Cc1nn(C)c(C)c1CC(=O)N1CCN(c2ccccc2C(=O)Nc2ccncc2)CC1 [N-Pyridin-4-yl-2-{4-[2-(1,3,5-trimethyl-1H-pyrazol-4-yl)-acetyl]-piperazin-1-yl}-benzamide]"
26,9.5,"Cc1cc(C)n(CC(=O)N2CCN(c3ccccc3C(=O)Nc3cc(CC(C)(C)C)no3)CC2)n1 [N-[3-(2,2-Dimethyl-propyl)-isoxazol-5-yl]-2-{4-[2-(3,5-dimethyl-pyrazol-1-yl)-acetyl]-piperazin-1-yl}-benzamide]"
27,8.9,"O=C(Nc1cc(Cl)cnc1N1CCN(C(=O)Cn2ccc3cccnc32)CC1)c1cccc(C(F)(F)F)c1 [N-{5-Chloro-2-[4-(2-pyrrolo[2,3-b]pyridin-1-yl-acetyl)-piperazin-1-yl]-pyridin-3-yl}-3-trifluoromethyl-benzamide]"
